Measurements from patent US10308686B2, “Gamma-AApeptides with potent and broad-spectrum antimicrobial activity” (priority 2012, dated 2019).
Converted amounts (≈) assume the structure as drawn. Where two headings read alike, the source gives them in different places.

Legend:
[1] = tested on: K. pneumoniae (ATCC 13383)
[2] = tested on: multi-drug resistant S. epidermidis (RP62A); conditions: for MIC, Gram positive S. epidermidis: Table 7; for MIC, S. epidermidis (multi-drug resistant): Table 3
[3] = tested on: multi-drug resistant P. aeruginosa ATCC 27853
[4] = tested on: vancomycin-resistant E. faecalis (ATCC 700802); conditions: for MIC, Gram positive E. faecalis: Table 7; for MIC, E. faecalis (vancomycin-resistant): Table 3
[5] = tested on: methicillin-resistant S. aureus (ATCC 33592); conditions: for MIC, Gram positive S. aureus: Table 7; for MIC, S. aureus (methicillin-resistant): Table 3
C. albicans (ATCC 10231) = conditions: ATCC 10231
[6] = tested on: human red blood cells (hRBC's); assay: Hemolysis assay; assay type: cell-based; conditions: for Hemolysis HC10 / Hemolysis HC50: red cells of human
Method: Freshly drawn human red blood cells (hRBC's) with additive K2 EDTA (spray-dried) were washed with PBS buffer several times and centrifuged at 1000 g for 10 min until a clear supernatant was observed. The hRBC's were resuspended in 1×PBS to get a 5% v/v suspension. Two-fold serial dilutions of γ-AApeptides dissolved in 1×PBS from 250 μg/ml through 1.6 μg/ml were added to a sterile 96-well plate to make up a total volume of 50 μL in each well. Then 50 μL of 5% v/v hRBC solution was added to make up a total volume of 100 μL in each well. The 0% hemolysis point and 100% hemolysis point were determined in 1×PBS and 0.2% Triton-X-100, respectively (Patch et al., 2003). The plate was then incubated at 37° C. for 1 h and centrifuged at 3500 rpm for 10 min. The supernatant (30 μL) was diluted with 100 μL of 1×PBS and absorption was detected by measuring the optical density at 360 nm by Biotek Synergy HT microtiter plate reader. % hemolysis was determined by the following equation: % hemolysis=(Abssample−AbsPBS)/(AbsTriton−AbsPBS)×100 H50 is the concentration of γ-AApeptide amphiphiles at which 50% hemolysis was observed. The highest concentration tested in the hemolytic assay was 500 μg/ml. 7. Fluorescence Microscopy
The sequences shown in FIG. 12 were also evaluated via hemolytic assays. Freshly drawn human red blood cells (hRBC's) with additive K2 EDTA (spray-dried) were washed with PBS buffer several times and centrifuged at 1000 g for 10 min until a clear supernatant was observed. The hRBC's were resuspended in 1×PBS to get a 5% v/v suspension. Two-fold serial dilutions of lipidated γ-AApeptides dissolved in 1×PBS from 1 mg/ml through 6.3 μg/ml were added to sterile 96-well plates to make up a total volume of 50 μL in each well. Then 50 μL of 5% v/v hRBC solution was added to make up a total volume of 100 μL in each well. The 0% hemolysis point and 100% hemolysis point were determined in 1×PBS and 0.2% Triton-X-100, respectively (Patch et al., 2003). The plate was then incubated at 37° C. for 1 h and centrifuged at 3500 rpm for 10 min. The supernatant (30 μL) was diluted with 100 μL of 1×PBS and absorption was detected by measuring the optical density at 360 nm with a Biotek Synergy HT microtiter plate reader. % hemolysis was determined by the following equation: % hemolysis=(Abs sample−Abs PBS)/(Abs Triton−Abs PBS)×100

| Structure (SMILES) | MIC, Gram negative K. pneumoniae [1] [µg/mL] | MIC, Gram positive S. epidermidis [2] [µg/mL] | MIC, Gram positive B. subtilis (B. subtilis (BR151)) [µg/mL] | MIC, Gram negative E. coli (E. coli (JM109)) [µg/mL] | MIC, Gram negative P. aeruginosa ([3]; ATCC 27853) [µg/mL] | MIC, Gram positive E. faecalis [4] [µg/mL] | MIC, Gram positive S. aureus [5] [µg/mL] | MIC, Fungi, C. albicans (C. albicans (ATCC 10231)) [µg/mL] | Hemolysis HC10 [6] [µg/mL] | Hemolysis HC50 [6] [µg/mL] | MIC, K. pneumoniae (causing pneumonia) [1] [µg/mL] | MIC, S. epidermidis (multi-drug resistant) [2] [µg/mL] | MIC, B. subtilis (B. subtilis (BR151)) [µg/mL] | MIC, E. coli (E. coli (JM109)) [µg/mL] | MIC, P. aeruginosa ([3]; ATCC 27853) [µg/mL] | MIC, E. faecalis (vancomycin-resistant) [4] [µg/mL] | MIC, S. aureus (methicillin-resistant) [5] [µg/mL] | MIC, Fungi C. albicans (C. albicans (ATCC 10231)) [µg/mL] | Hemolysis (H50) [6] [µg/mL] | MIC, P. aeruginosa ([3]; Table 3) [µg/mL] |
| --- | --- | --- | --- | --- | --- | --- | --- | --- | --- | --- | --- | --- | --- | --- | --- | --- | --- | --- | --- | --- |
| CCCCCCCCCCCCCCCC(=O)N[C@@H](CCCCN)CN(CC(=O)N[C@@H](CCCCN)CN(CC(=O)N[C@@H](CCCCN)CN(CC(N)=O)C(=O)CCCN)C(=O)CCCN)C(=O)CCCN [Sequence 4] | >50 | 2 (≈ 1.95 µM) | 1.5 (≈ 1.46 µM) | 20 (≈ 19.5 µM) | 15 (≈ 14.6 µM) | 10 (≈ 9.76 µM) | 5 (≈ 4.88 µM) | 2 (≈ 1.95 µM) | 300 | > 500 |  |  |  |  |  |  |  |  |  |  |
| CC(=O)N(CC(=O)N[C@@H](C)CN(CC(=O)N[C@@H](CC(C)C)CN(CC(=O)N[C@@H](CC(C)C)CN(CC(=O)N[C@@H](CC(C)C)CN(CC(N)=O)C(=O)CCCN)C(=O)CCCN)C(=O)CCCN)C(C)=O)C[C@H](C)N [Sequence 9] | >100 | >100 | >100 | >100 | >100 | >100 | >100 | >100 | 120 | > 500 |  |  |  |  |  |  |  |  |  |  |
| CCCCCCCCCCCCCCCC(=O)N[C@@H](C)CN(CC(=O)N[C@@H](C)CN(CC(=O)N[C@@H](CCC(=O)O)CN(CC(=O)N[C@@H](CCC(=O)O)CN(CC(=O)N[C@@H](CCC(=O)O)CN(CC(N)=O)C(=O)CC(=O)O)C(=O)CC(=O)O)C(=O)CC(=O)O)C(C)=O)C(C)=O [Sequence 7] | >100 | >100 | >100 | >100 | >100 | >100 | >100 | >100 | 250 | > 500 |  |  |  |  |  |  |  |  |  |  |
| CC(C)CCC(=O)N1CC(=O)N[C@@H](Cc2ccccc2)CN(C(=O)CCC(C)C)CC(=O)N[C@@H](CCCCN)CN(C(=O)CCc2ccccc2)CC(=O)N[C@@H](CCCCN)CN(C(=O)CCc2ccccc2)CC(=O)N[C@@H](CCCCN)CN(C(=O)CCc2ccccc2)CC(=O)N[C@@H](CCCCN)CN(C(=O)CCc2ccccc2)CC(=O)N[C@@H](Cc2ccccc2)CN(CC(N)=O)C(=O)CCC(=O)N[C@@H](Cc2ccccc2)C1 [γAA5] |  |  |  |  |  |  |  |  |  |  | 8 (≈ 3.85 µM) | 2 (≈ 0.962 µM) | 1 (≈ 0.481 µM) | 12.5 to 25 | 8 (≈ 3.85 µM) | 5 (≈ 2.4 µM) | 1 (≈ 0.481 µM) | 2 (≈ 0.962 µM) | 100 |  |
| CCCCCCCC/C=C\CCCCCCCC(=O)N[C@@H](C)CN(CC(=O)N[C@@H](C)CN(CC(=O)N[C@@H](CC(C)C)CN(CC(=O)N[C@@H](CC(C)C)CN(CC(=O)N[C@@H](CC(C)C)CN(CC(N)=O)C(=O)CCCN)C(=O)CCCN)C(=O)CCCN)C(C)=O)C(C)=O [Sequence 13] | 3 (≈ 2.28 µM) | 3 (≈ 2.28 µM) | 3 (≈ 2.28 µM) | 3 (≈ 2.28 µM) | 3 (≈ 2.28 µM) | 4 (≈ 3.04 µM) | 3 (≈ 2.28 µM) | 3 (≈ 2.28 µM) | 100 | > 500 |  |  |  |  |  |  |  |  |  |  |
| CC(C)CCC(=O)N1CC(=O)N[C@@H](Cc2ccccc2)CN(C(=O)CCC(C)C)CC(=O)N[C@@H](Cc2ccccc2)CN(C(=O)CCC(C)C)CC(=O)N[C@@H](CCCCN)CN(C(=O)CCc2ccccc2)CC(=O)N[C@@H](CCCCN)CN(C(=O)CCc2ccccc2)CC(=O)N[C@@H](CCCCN)CN(C(=O)CCc2ccccc2)CC(=O)N[C@@H](Cc2ccccc2)CN(CC(N)=O)C(=O)CCC(=O)N[C@@H](Cc2ccccc2)C1 [γAA6] |  |  |  |  |  |  |  |  |  |  | 10 (≈ 4.84 µM) | 2 (≈ 0.969 µM) | 2 (≈ 0.969 µM) | 25 to 50 |  | 5 (≈ 2.42 µM) | 3 (≈ 1.45 µM) | 4 (≈ 1.94 µM) | 300 | 10 (≈ 4.84 µM) |
